Data taken from EP4603105A1, “PHARMACEUTICAL COMPOSITION CONTAINING CYCLIC COMPOUND HAVING SELECTIVE KRAS INHIBITORY EFFECT AGAINST HRAS AND NRAS” (CHUGAI SEIYAKU KABUSHIKI KAISHA, priority 2022, dated 2024).
*1 amine or outer side, *2 acyl side, *3 side chain or, on linkers, in order; H or OH if unused. Where a SMILES comes first, the peptide text is derived from it. Bridges are numbered along the chain shown (N, C = ends). [ ]: non-standard residue; d: D form. The star is where a group is joined. hPhe(3-Cl-4-CF3) = N[C@@H](CCc1ccc(C(F)(F)F)c(Cl)c1)C(=O)O; NPrPhe(4-CF3) = CCCN[C@@H](Cc1ccc(C(F)(F)F)cc1)C(=O)O; X28 = Cc1ccc(C[C@@H](C(=O)[*:2])N(CC2CCCCC2)[*:1])cc1; NEtPhe(4-Me) = CCN[C@@H](Cc1ccc(C)cc1)C(=O)O; X21 = CCCN([C@H](C(=O)[*:2])C1CCCC1)[*:1]; Pip(4,4-F2) = O=C(O)[C@@H]1CC(F)(F)CCN1; NMeGly(cPent) = CN[C@H](C(=O)O)C1CCCC1; NMeD = CN[C@@H](CC(=O)O)C(=O)O; NMeL = CN[C@@H](CC(C)C)C(=O)O; Morpholide = C1CN(*)CCO1; NMeA = CN[C@@H](C)C(=O)O; Ac5c = NC1(C(=O)O)CCCC1; Aze = O=C(O)[C@@H]1CCN1; Aib = CC(C)(N)C(=O)O; NEtG = CCNCC(=O)O; Sar = CNCC(=O)O

Legend:
[1] = system: human lung cancer strain NCI-H441; format: cell-based
How it was run: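 Readout: […] after the ATP-based reagent. Compound: serial dilutions in dimethyl sulfoxide.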

[2] = target: GDP-bound NRAS wild-type protein (Homo sapiens, UniProt P01111); assay: Binding to NRAS by surface plasmon resonance (SPR), KD and KD ratio to KRAS
How it was run: (§1)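 Affinity is measured by surface plasmon resonance at 30°C against captured, GDP-loaded RAS carrying a biotinylated Avi tag. Compounds are titrated by single-cycle kinetics, and KD comes from a 1:1 fit.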

HRAS wild-type protein = HRAS wild-type protein (Homo sapiens, UniProt P01112); assay: Binding to HRAS by surface plasmon resonance (SPR), KD and KD ratio to KRAS
How it was run: as §1

[3] = ratio of the KD value with respect to GDP-bound NRAS wild-type protein to the KD value with respect to KRAS
[4] = ratio of the KD value with respect to HRAS wild-type protein to the KD value with respect to KRAS
[5] = ratio of KD for GDP-bound NRAS wild-type protein to KD for KRAS
[6] = ratio of KD for HRAS wild-type protein to KD for KRAS
[7] = ratio of KD value for GDP-bound NRAS wild-type protein to KD value for KRAS (SPR)
[8] = ratio of KD value for HRAS wild-type protein to KD value for KRAS (SPR)

HRAS wild-type protein, sequence (P01112 whole entry): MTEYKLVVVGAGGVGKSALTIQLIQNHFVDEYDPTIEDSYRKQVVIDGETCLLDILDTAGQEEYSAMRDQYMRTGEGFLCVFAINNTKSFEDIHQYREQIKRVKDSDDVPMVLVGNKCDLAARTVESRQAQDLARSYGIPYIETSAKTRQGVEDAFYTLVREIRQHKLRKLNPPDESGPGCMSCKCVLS
GDP-bound NRAS wild-type protein, sequence (P01111 whole entry): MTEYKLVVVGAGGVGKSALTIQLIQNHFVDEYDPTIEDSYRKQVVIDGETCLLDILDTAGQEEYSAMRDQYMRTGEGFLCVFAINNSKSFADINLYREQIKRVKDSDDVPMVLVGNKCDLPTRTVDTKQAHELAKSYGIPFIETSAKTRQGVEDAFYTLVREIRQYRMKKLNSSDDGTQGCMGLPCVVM

Compound | IC50 [1] [nM] | NRAS /KRAS [2, 3] | HRAS /KRAS (HRAS wild-type protein; [4]) | NRAS /KRAS [2, 5] | HRAS /KRAS (HRAS wild-type protein; [6]) | NRAS /KRAS [2, 7] | HRAS /KRAS (HRAS wild-type protein; [8])
CCO[C@@H]1C[C@H]2C(=O)NC3(CC(C)(C)C3)C(=O)N(C)[C@@H](C3CCCC3)C(=O)N(C)[C@H](C(=O)N(C)CC)CC(=O)N(C)[C@@H](C3CC3)C(=O)N[C@@H]([C@@H](C)CC)C(=O)N(C)CC(=O)N(C)[C@H]3C/C=C\CCN(C3=O)[C@@H](Cc3ccc(C(F)(F)F)cc3)C(=O)N(C)CC(=O)N[C@@H](CCc3ccc(C(F)(F)F)c(OC)c3)C(=O)N2C1 [PP1981] | 20.7 | A (a compound having 10 or more and less than 20 is denoted as A) | A (a compound having 10 or more and less than 20 is denoted as A) | – | – | – | –
CCO[C@@H]1C[C@H]2C(=O)NC3(CC(C)(C)C3)C(=O)N(C)[C@@H](C3CCCC3)C(=O)N(C)[C@H](C(=O)N3CCCCC3)CC(=O)N(C)[C@H]3CCC/C=C/c4ccc(cc4)C[C@@H](C(=O)N(C)CC(=O)N[C@@H](CCc4cc(F)c(C(F)(F)F)c(F)c4)C(=O)N2C1)N1CC/C=C\C[C@@H](C1=O)N(C)C(=O)CN(C)C(=O)[C@H]([C@@H](C)CC)NC3=O [PP2573] | 10.1 | – | – | A (a compound having 10 or more and less than 20 is denoted as A) | A (a compound having 10 or more and less than 20 is denoted as A) | – | –
CCO[C@@H]1C[C@H]2C(=O)NC3(CCC3)C(=O)N(C)[C@@H](C3CCCC3)C(=O)N(C)[C@H](C(=O)N(C)C)CC(=O)N(C)[C@@H](Cc3ccccc3)C(=O)N[C@@H]([C@@H](C)CC)C(=O)N(C)CC(=O)N(C)[C@H]3C/C=C\CCN(C3=O)[C@@H](Cc3ccc(C(F)(F)F)cc3)C(=O)N(C)CC(=O)N[C@@H](CCc3cc(F)c(C(F)(F)F)c(F)c3)C(=O)N2C1 [PP1116] | 19.8 | – | – | A (a compound having 10 or more and less than 20 is denoted as A) | A (a compound having 10 or more and less than 20 is denoted as A) | – | –
CCCN1C(=O)CN(C)C(=O)CN(C)C(=O)[C@H]([C@@H](C)CC)NC(=O)[C@H](CC(C)C)N(C)C(=O)C[C@@H](C(=O)N2CCOCC2)N(C)C(=O)[C@H](C2CCCC2)N(C)C(=O)C2(CCCC2)NC(=O)[C@@H]2CCCN2C(=O)[C@H](CCc2ccc(C(F)(F)F)c(Cl)c2)NC(=O)CN(C)C(=O)[C@@H]1C1CCCC1 [PP0061] ([NMeL]I[Sar][Sar][X21][Sar][hPhe(3-Cl-4-CF3)]P[Ac5c][NMeGly(cPent)][NMeD]-Morpholide; lactam N-11) | 84.4 | – | – | B (a compound having 3 or more and less than 10 is denoted as B) | C (A compound having a KD ratio of 0.1 or more and less than 3 is denoted as C) | – | –
CC[C@H](C)[C@@H]1NC(=O)[C@H](COC)N(C)C(=O)C[C@@H](C(=O)N2CCOCC2)N(C)C(=O)[C@H](C2CCCC2)N(C)C(=O)C2(CCC2)NC(=O)[C@@H]2CC(F)(F)CN2C(=O)[C@H](CCc2cc(F)c(C(F)(F)F)c(F)c2)NC(=O)CN(C)C(=O)[C@H](Cc2ccc(C(F)(F)F)cc2)N2CCCCC[C@@H](C2=O)N(C)C(=O)[C@@H]2CCN2C1=O [PP0866] | 197 | – | – | B (a compound having 3 or more and less than 10 is denoted as B) | B (a compound having 3 or more and less than 10 is denoted as B) | – | –
CCCN1C(=O)CN(C)C(=O)CN(C)C(=O)[C@H]([C@@H](C)CC)NC(=O)[C@H](CC(C)C)N(C)C(=O)C[C@@H](C(=O)N2CCOCC2)N(C)C(=O)[C@H](C2CCCC2)N(C)C(=O)C(C)(C)NC(=O)[C@@H]2CCCN2C(=O)[C@H](CCc2ccc(C(F)(F)F)c(Cl)c2)NC(=O)CN(C)C(=O)[C@@H]1Cc1ccc(C(F)(F)F)cc1 [PP0230] ([NMeL]I[Sar][Sar][NPrPhe(4-CF3)][Sar][hPhe(3-Cl-4-CF3)]P[Aib][NMeGly(cPent)][NMeD]-Morpholide; lactam N-11) | 15.5 | – | – | B (a compound having 3 or more and less than 10 is denoted as B) | C (A compound having a KD ratio of 0.1 or more and less than 3 is denoted as C) | – | –
CC[C@H](C)[C@@H]1NC(=O)[C@H](CC(C)C)N(C)C(=O)C[C@@H](C(=O)N2CCOCC2)N(C)C(=O)[C@H](C2CCCC2)N(C)C(=O)C2(CCCC2)NC(=O)[C@@H]2CCCN2C(=O)[C@H](CCc2ccc(C(F)(F)F)c(Cl)c2)NC(=O)CN(C)C(=O)[C@H](Cc2ccc(C)cc2)N(CC2CCCCC2)C(=O)[C@@H]2CCN2C(=O)[C@H](C)N(C)C1=O [PP0085] ([NMeL]I[NMeA][Aze][X28][Sar][hPhe(3-Cl-4-CF3)]P[Ac5c][NMeGly(cPent)][NMeD]-Morpholide; lactam N-11) | 108 | – | – | C (A compound having a KD ratio of 0.1 or more and less than 3 is denoted as C) | C (A compound having a KD ratio of 0.1 or more and less than 3 is denoted as C) | – | –
CC[C@H](C)[C@@H]1NC(=O)[C@H](CC(C)C)N(C)C(=O)C[C@@H](C(=O)N2CCOCC2)N(C)C(=O)[C@H](C2CCCC2)N(C)C(=O)C2(CCCC2)NC(=O)[C@@H]2CCCN2C(=O)[C@H](CCc2ccc(C(F)(F)F)c(Cl)c2)NC(=O)CN(CC)C(=O)[C@H](Cc2ccc(C)cc2)N(CC)C(=O)CN(CC)C(=O)CN(C)C1=O [PP0030] ([NMeL]I[Sar][NEtG][NEtPhe(4-Me)][NEtG][hPhe(3-Cl-4-CF3)]P[Ac5c][NMeGly(cPent)][NMeD]-Morpholide; lactam N-11) | 86.7 | – | – | C (A compound having a KD ratio of 0.1 or more and less than 3 is denoted as C) | C (A compound having a KD ratio of 0.1 or more and less than 3 is denoted as C) | – | –
CCCN1C(=O)CN(C)C(=O)CN(C)C(=O)[C@H]([C@@H](C)CC)NC(=O)[C@H](CC(C)C)N(C)C(=O)C[C@@H](C(=O)N2CCOCC2)N(C)C(=O)[C@H](C2CCCC2)N(C)C(=O)C2(CCCC2)NC(=O)[C@@H]2CC(F)(F)CCN2C(=O)[C@H](CCc2ccc(C(F)(F)F)c(Cl)c2)NC(=O)CN(C)C(=O)[C@@H]1Cc1ccc(C(F)(F)F)cc1 [PP0264] ([NMeL]I[Sar][Sar][NPrPhe(4-CF3)][Sar][hPhe(3-Cl-4-CF3)][Pip(4,4-F2)][Ac5c][NMeGly(cPent)][NMeD]-Morpholide; lactam N-11) | 16.4 | – | – | B (a compound having 3 or more and less than 10 is denoted as B) | C (A compound having a KD ratio of 0.1 or more and less than 3 is denoted as C) | – | –
CCCOC[C@H]1C(=O)N[C@@H]([C@@H](C)CC)C(=O)N(C)CC(=O)N(C)[C@H]2C/C=C\CCN(C2=O)[C@@H](Cc2ccc(C(F)(F)F)cc2)C(=O)N(C)CC(=O)N[C@@H](CCc2cc(F)c(C(F)(F)F)c(F)c2)C(=O)N2C[C@H](OCC)C[C@H]2C(=O)NC2(CC(C)(C)C2)C(=O)N(C)[C@@H](C2CCCC2)C(=O)N(C)[C@H](C(=O)N(CC)CC)CC(=O)N1C [PP1575] | 11.1 | – | – | – | – | B (a compound having 3 or more and less than 10 is denoted as B) | B (a compound having 3 or more and less than 10 is denoted as B)
CCC[C@H]1C(=O)N[C@@H]([C@@H](C)CC)C(=O)N(C)CC(=O)N(C)[C@H]2C/C=C\CCN(C2=O)[C@@H](Cc2ccc(C(F)(F)F)cc2)C(=O)N(C)CC(=O)N[C@@H](CCc2cc(F)c(C(F)(F)F)c(F)c2)C(=O)N2C[C@H](OCC)C[C@H]2C(=O)NC2(CC(C)(C)C2)C(=O)N(C)[C@@H](C(CC)CC)C(=O)N(C)[C@H](C(=O)N(C)C)CC(=O)N1C [PP2125] | 4 | AA (a compound having 20 or more is denoted as AA) | A (a compound having 10 or more and less than 20 is denoted as A) | – | – | – | –
CCCN1C(=O)[C@@H]2CCN2C(=O)CN(CC)C(=O)[C@H]([C@@H](C)CC)NC(=O)[C@H](CC(C)C)N(C)C(=O)C[C@@H](C(=O)N2CCOCC2)N(C)C(=O)[C@H](C2CCCC2)N(C)C(=O)C2(CCCC2)NC(=O)[C@@H]2CCCN2C(=O)[C@H](CCc2ccc(C(F)(F)F)c(Cl)c2)NC(=O)CN(C)C(=O)[C@@H]1Cc1ccc(C(F)(F)F)cc1 [PP0259] ([NMeL]I[NEtG][Aze][NPrPhe(4-CF3)][Sar][hPhe(3-Cl-4-CF3)]P[Ac5c][NMeGly(cPent)][NMeD]-Morpholide; lactam N-11) | 10.2 | – | – | C (A compound having a KD ratio of 0.1 or more and less than 3 is denoted as C) | B (a compound having 3 or more and less than 10 is denoted as B) | – | –
CC[C@H](C)[C@@H]1NC(=O)[C@H](CC)N(C)C(=O)C[C@@H](C(=O)N(C)CC)N(C)C(=O)[C@H](C2CCCC2)N(C)C(=O)C2(CC(C)(C)C2)NC(=O)[C@@H]2C[C@@H](C)CN2C(=O)[C@H](CCc2ccc(C(F)(F)F)c(Cl)c2)NC(=O)CN(C)C(=O)[C@H](Cc2ccc(C)cc2)N2CC/C=C\C[C@@H](C2=O)N(C)C(=O)CN(C)C1=O [PP1876] | 23 | – | – | – | – | A (a compound having 10 or more and less than 20 is denoted as A) | A (a compound having 10 or more and less than 20 is denoted as A)
CCO[C@@H]1C[C@H]2C(=O)NC3(CCC3)C(=O)N(C)[C@@H](C3CCCC3)C(=O)N(C)[C@H](C(=O)N(C)C)CC(=O)N(C)[C@@H](Cc3ccc(C)cc3)C(=O)N[C@@H]([C@@H](C)CC)C(=O)N(C)CC(=O)N(C)[C@H]3CCCCCN(C3=O)[C@@H](Cc3ccc(C(F)(F)F)cc3)C(=O)N(C)CC(=O)N[C@@H](CCc3cc(F)c(C(F)(F)F)c(F)c3)C(=O)N2C1 [PP0943] | 154 | – | – | B (a compound having 3 or more and less than 10 is denoted as B) | B (a compound having 3 or more and less than 10 is denoted as B) | – | –
